Where no end group is shown, it is not given here.

Results on three sequences are retold here after PMC7440915, “Discovery of surrogate agonists for visceral fat Treg cells that modulate metabolic indices in vivo” (eLife, 2020).

The test system of one assay is vTreg53 Treg cells. Briefly: Proliferation and activation of primary vTreg53 TCR-tg Treg cells in vitro. The conditions noted are these: 3 days; for proliferation: compared with no peptide / other SPs; for potency on primary vTreg53 Treg cells: in vitro. The class given is cell-based, mouse. From the text: Figure 4. SPs induce proliferation and activation of vTreg53 Treg cells in vitro and in vivo. (A–D) Proliferation and activation of vTreg53 Treg cells by different concentrations of SPs for 3 days in vitro (n = 3). (A) Representative flow cytometric plot of cell division. (B) Summary of cell proliferation. (C) Mean flourescence intensity (MFI) of CD44 staining in clonotype^+ Treg cells. (D) MFI of CD62L staining in clonotype^+ Treg cells. (E) Proliferation of transferred CD45.2^+ vTreg53 Treg cells in the spleen of CD45.1^+ B6 recipient mice immunized s.c. with CFA or CFA/Fat1562 at day 3 (n = 3). (F) Expansion of transferred CD45.2^+ vTreg53 Treg cells in the Spl/LNs or VAT of CD45.1^+ B6 recipient mice that were primed with CFA/fat1562 s.c. and boosted with IFA/Fat1562 i.p. (n ≥ 3). Data are mean ± SD. Data shown are representative of at least two independent experiments. Figure 4—figure supplement 1. Single cell TCR sequencing (scTCR-seq) analyses of fat1562-reactive endogenous Treg cells following immunization. (A) Scheme of the experiment. (B) Flow cytometric analysis of fat1562/A^b -PE tetramer+ Treg cells in Spl/LNs (enriched by anti-PE beads) or VAT (not enriched) of mice immunized with adjuvant alone or adjuvant/fat1562. Plot is a representative of mice that did show detectable expansion of tetramer+ Tregs. (C) Numbers of fat1562/A^b -PE tetramer+ Treg cells in Spl/LNs or VAT of mice immunized with adjuvant alone or adjuvant/fat1562 (D) Summary of the frequency and CDR3 sequences of expanded fat1562/A^b -PE tetramer+ Treg clones. [drawing 5] TEXT PRINTED IN THE PICTURE: (A) Fat7: 51 (1μM); 32.1 (0.1μM); 16.4 (0.01μM) | (A) Fat15: 59.7 (1μM); 54.4 (0.1μM); 37.1 (0.01μM) | (A) Fat1562: 61.6 (1μM); 57.6 (0.1μM); 51.8 (0.01μM) | (A) Fat2564: 44.2 (1μM); 32.5 (0.1μM); 19.3 (0.01μM) | (E) CFA: 9.6 | (E) CFA/Fat1562: 76.8 | (F) adjuvant: 0.1 (Spl/LN); 1.5 (VAT) | (F) adjuvant/Fat1562: 0.7 (Spl/LN); 38.1 (VAT) DOUBTS OF THE COPYIST ABOUT THIS PICTURE: Panels A, E, F: the gate numbers in the flow cytometry plots are printed without a measure or unit; they are copied as bare numbers. / Panel A: the row 'no peptide' (15.7, 17.1, 17.2) is a control without a substance and was left out. / Panel A, Fat1562, 1μM: the number is crossed by the histogram line; 61.6 is the best reading. / Panel E, CFA/Fat1562: the number is crossed by the histogram line; 76.8 is the best reading.
Tregs from pooled LNs of Tg^+ Foxp3-GFP^KI/y mice were labeled with CellTrace Violet dye (ThermoFisher Scientific), cultured in complete RPMI medium in the presence of 100 U/ml recombinant mouse IL-2 (peprotech), and stimulated by syngeneic APCs loaded with the indicated concentrations of different peptides. 3 days later, the proliferation and activation of clonotype^+ Treg cells was determined by flow cytometric analysis of the dilution of the CellTrace Violet dye, upregulation of CD44 expression, and downregulation of CD62L levels.

The next assay has as its system endogenous Treg cells. In words: Endogenous Fat1562/A^b tetramer^+ Treg cells and scTCR-seq after immunization of wild-type B6 mice. The class given is in vivo, mouse. From the text:
We next investigated whether Fat1562 immunization of wild-type B6 mice would elicit expansion of particular Treg clones in VAT, and whether their TCRs would resemble the vTreg53 TCR. 16–20 week-old B6 mice were immunized with Fat1562 using the prime and boost scheme (Figure 4—figure supplement 1A), and the Fat1562-reactive CD4^+ T cells were characterized by staining with the Fat1562/A^b-PE tetramer. […] We then sorted individual Fat1562/A^b tetramer^+ Treg cells from the spleen and VAT of these 3 mice into 96-well plates, and determined the sequences of their TCR-β and TCR-α complementarity-determining region (CDR)3 s. […] Within each mouse, the Spl/LNs and VAT Treg clones had the same CDR3α and CDR3β. […] Therefore, although with some degree of variability, Fat1562 was able to expand an endogenous Treg population that highly resembled the original vTreg53 VAT-Treg clone.
Foxp3^+CD4^+ TCRβ^+ Fat1562/A^b-PE^+ Treg cells from VAT or pooled Spl/LN of 16–20 week-old Foxp3-GFP mice were first sorted in bulk before resorting as individual cells using a MoFlo (Beckman Coulter) into wells of 96-well PCR plates containing the reverse transcriptase reaction mix, and cDNA was prepared as described previously ([Burzyn et al., 2013]). Extreme caution was taken to minimize contamination of wells. […]

Turning to LMFKGPHAVQAVG [Fat7], the “CD44 up-regulation” value with vTreg53 Treg cells (0.01 µM, compared with no peptide) was “unable to promote any further proliferation and up-regulation of CD44 expression”. For the same sequence, in the assay with vTreg53 Treg cells (0.01 µM), the “proliferation” value was “unable to promote any further proliferation”. Moreover, in the assay on vTreg53 Treg cells (1 µM, n = 3), the “CD62L down-regulation” value is recorded as “dampened CD62L levels only moderately”.

Consider TMYKNLRPWAATG [Fat2564], for which, in the assay with vTreg53 Treg cells, the “potency on primary vTreg53 Treg cells” value is given as “relatively weak potency, which was comparable with that of Fat7”.

For the sequence TMYKNPRPMAATG [Fat1562], the “mice with detectable expansion of Fat1562/A^b tetramer^+ Treg population” value in the assay on endogenous Treg cells (out of the 10 mice immunized, Spl/LN and VAT, 16–20 week-old B6) is given as “three”. The “clonality of Fat1562/A^b tetramer^+ Treg population” value with endogenous Treg cells (three mice, scTCR-seq of CDR3α/β) is reported as “almost entirely monoclonal”. Further, in the assay on vTreg53 Treg cells (0.01 µM), the “CD62L down-regulation” value is “strongest proliferation and down-regulation of CD62L”; the “proliferation” value is listed as “strongest proliferation”. Besides, in the assay on vTreg53 Treg cells (1 µM, n = 3), the “CD62L down-regulation” value was “strongest down-regulation of CD62L”. Further, the “potency on primary vTreg53 Treg cells” value in the assay with vTreg53 Treg cells was “consistently the strongest SP”.
